The text below walks through data of US7517529B2, “Treatment of type I diabetes” (Biotempt B.V., priority 2003, dated 2009).

Ends that are not written are not given here.

Test [1] concerns NFκB. The test can be described thus: EMSA of nuclear extracts, basal and LPS-induced NFκB translocation in RAW 264.7 mouse macrophages. It is filed as cell-based. The settings on record: 30 minutes; for LPS-induced translocation of NFκB: LPS in combination with peptide (1 microgr/ml; 1 mg/ml); for Basal levels of NFκB in the nucleus: peptide without LPS. As to the method: RAW 264.7 mouse macrophages were cultured in DMEM, containing 10% or 2% FBS, penicillin, streptomycin and glutamine, at 37° C., 5% CO2. Cells were seeded in a 12-wells plate (3×10^6 cells/ml) in a total volume of 1 ml for two hours and then stimulated with LPS (E. coli 026:B6; Difco Laboratories, Detroit, Mich., USA) and/or gene-regulatory peptide (1 microgr/ml). After 30 minutes of incubation, plates were centrifuged and cells were collected for nuclear extracts. Nuclear extracts and EMSA were prepared according to Schreiber et al. Cells were collected in a tube and centrifuged for five minutes at 2000 rpm (rounds per minute) at 4° C. (Universal 30 RF, Hettich Zentrifuges). The pellet was washed with ice-cold Tris buffered saline (TBS pH 7.4) and resuspended in 400 μl of a hypotonic buffer A (10 mM HEPES pH 7.9, 10 mM KCl, 0.1 mM EDTA, 0.1 mM EGTA, 1 mM DTT, 0.5 mM PMSF and protease inhibitor cocktail (Complete™ Mini, Roche) and left on ice for 15 minutes. Twenty-five microliters 10% NP-40 was added and the sample was centrifuged (two minutes, 4000 rpm, 4° C.). The supernatant (cytoplasmic fraction) was collected and stored at −70° C. The pellet, which contains the nuclei, was washed with 50 μl buffer A and resuspended in 50 μl buffer C (20 mM HEPES pH 7.9, 400 mM NaCl, 1 mM EDTA, 1 mM EGTA, 1 mM DTT, 0.5 mM PMSF and protease inhibitor cocktail and 10% glycerol). The samples were left to shake at 4° C. for at least 60 minutes. Finally the samples were centrifuged and the supernatant (nucleic fraction) was stored at −70° C.
Bradford reagent (Sigma) was used to determine the final protein concentration in the extracts. For electrophoretic mobility shift assays an oligonucleotide representing NFκB-binding sequence (5′-AGCTCAGAGGGGGACTTTCCGAGAG-3′ (SEQ ID NO:28)) was synthesized. Hundred pico mol sense and antisense oligo were annealed and labeled with […] using T4 polynucleotide kinase according to the manufacturer's instructions (Promega, Madison, Wis.). Nuclear extract (5 to 7.5 μg) was incubated for 30 minutes with 75000 cpm probe in binding reaction mixture (20 microliters) containing 0.5 μg poly dI-dC (Amersham Pharmacia Biotech) and binding buffer BSB (25 mM MgCl2, 5 mM CaCl2, 5 mM DTT and 20% Ficoll) at room temperature. The DNA-protein complex was resolved from free oligonucleotide by electrophoresis in a 4 to 6% polyacrylamide gel (150 V, two to four hours). The gel was then dried and exposed to x-ray film. The transcription factor NFκB participates in the transcriptional regulation of a variety of genes. Nuclear protein extracts were prepared from either LPS (1 mg/ml), peptide (1 mg/ml) or LPS in combination with peptide-treated and untreated RAW264.7 cells. In order to determine whether the peptides modulate the translocation of NFκB into the nucleus, on these extracts EMSA was performed. Peptides are able to modulate the basal as well as LPS-induced levels of NFκB. In this experiment peptides that show the inhibition of LPS-induced translocation of NFκB are: […] (SEQ ID NO:21), […] (SEQ ID NO:22), LQG, LQGV (SEQ ID NO:1), […] (SEQ ID NO:23), VLPALP (SEQ ID NO:4), VVC, MTR and circular […] (SEQ ID NO: 17). Peptides that in this experiment promote LPS-induced translocation of NFκB are: VLPALPQ (SEQ ID NO:13), GVLPALP (SEQ ID NO:16) and MTRV (SEQ ID NO:20). Basal levels of NFκB in the nucleus was decreased by […] (SEQ ID NO:21), […] (SEQ ID NO:22), LQG and LQGV (SEQ ID NO:1) while basal levels of NFκB in the nucleus was increased by […] (SEQ ID NO:23), VLPALPQ (SEQ ID NO:13), GVLPALP (SEQ ID NO:16), VVC, MTRV (SEQ ID NO:20), MTR and […].

Test [2] has as its system relapsing-remitting multiple sclerosis. The conditions noted are these: treated group, trial of 251 patients; cited from earlier work.
Test [3] deals with production of NO by a cell. The test can be described thus: Production of NO by a cell. Format: cell-based.
The subject of test [4] is NFκB. The test can be described thus: Other experiments on translocation of NFκB into nucleus (data not shown). It is filed as cell-based.

On to GVLPALP, for which, in the test with NFκB [1], the “LPS-induced translocation of NFκB” value is listed as “promote” and the “Basal levels of NFκB in the nucleus” value was “increased”.
On to GVLPALPQ, for which, in the test with NFκB [1], the “LPS-induced translocation of NFκB” value is “inhibition” and the “Basal levels of NFκB in the nucleus” value is recorded as “increased”.
Regarding Glatiramer acetate, the “annual relapse rate reduced by” value in test [2] is 25%.
Take LQG: the “production of NO by a cell” value in test [3] is “capable of reducing production of NO by a cell”. Besides, in the test on NFκB [1], the “LPS-induced translocation of NFκB” value is on record as “inhibition” and the “Basal levels of NFκB in the nucleus” value is “decreased”.
For LQGV the same measures were “capable of reducing production of NO by a cell”, “inhibition” and “decreased”.
LQGVLPALPQ: the “production of NO by a cell” value in test [3] is recorded as “capable of reducing production of NO by a cell”. Moreover, in the test with NFκB [1], the “LPS-induced translocation of NFκB” value is “inhibition” and the “Basal levels of NFκB in the nucleus” value is recorded as “decreased”.
With LQGVLPALPQVVC, the “Basal levels of NFκB in the nucleus” value in the test with NFκB [1] is on record as “increased”.
For MTR, in the test on NFκB [1], the “LPS-induced translocation of NFκB” value is recorded as “inhibition” and the “Basal levels of NFκB in the nucleus” value was “increased”.
MTRV: in the test on NFκB [1], the “LPS-induced translocation of NFκB” value was “promote” and the “Basal levels of NFκB in the nucleus” value is listed as “increased”.
Regarding QVVC, the “modulation of translocation of NFκB into nucleus” value in the test with NFκB [4] is listed as “modulation of translocation of NFκB into nucleus”.
As to VLPALP, in test [3], the “production of NO by a cell” value is reported as “capable of reducing production of NO by a cell”. Moreover, in the test on NFκB [1], the “LPS-induced translocation of NFκB” value is “inhibition”.
As to VLPALPQ, in the test on NFκB [1], the “LPS-induced translocation of NFκB” value is “promote” and the “Basal levels of NFκB in the nucleus” value is “increased”.
Consider VLPALPQVVC, for which the “production of NO by a cell” value in test [3] is reported as “capable of reducing production of NO by a cell”. In addition, in the test on NFκB [1], the “LPS-induced translocation of NFκB” value is on record as “inhibition” and the “Basal levels of NFκB in the nucleus” value is reported as “decreased”.
Regarding VVC, in the test on NFκB [1], the “LPS-induced translocation of NFκB” value is listed as “inhibition” and the “Basal levels of NFκB in the nucleus” value was “increased”.
As to “circular LQGVLPALPQVVC (also: circular/cyclised, mode not given here)”, in the test on NFκB [1], the “LPS-induced translocation of NFκB” value is “inhibition”.
